Experimental data as given in patent US20230303647A1, “CYCLIC CHEMERIN-9 DERIVATIVES” (priority 2020, published 2023).
Entries after “also recorded” stand apart in the source; their conditions may differ. *1 amine or outer side, *2 acyl side, *3 side chain or, on linkers, in order; H or OH if unused. Where a SMILES comes first, the peptide text is derived from it. Bridges are numbered along the chain shown (N, C = ends). [ ]: non-standard residue; d: D form. The star is where a group is joined. ξ: configuration not given here. X1 = CN(C)c1ccc2c(-c3cc(C(=O)*)ccc3C(=O)[O-])c3ccc(=[N+](C)C)cc-3oc2c1; X2 = CN(C)c1ccc2c(-c3cc(C(=O)*)ccc3C(=O)O)c3ccc(=[N+](C)C)cc-3oc2c1; PEG4 = NCCOCCOCCOCCOCCC(=O)O; d(hCys) = N[C@H](CCS)C(=O)O; hCys = N[C@@H](CCS)C(=O)O; ξF = NC(Cc1ccccc1)C(=O)O; CH2 = C([*:1])[*:2]; ξC = NC(CS)C(=O)O

What was measured:
CMKLR1 [1] = molecular target: T1, CMKLR1 (Homo sapiens, UniProt Q99788); assay: Ca2+ mobilization assay (G protein-mediated signaling)
T1 sequence (Q99788 1-373): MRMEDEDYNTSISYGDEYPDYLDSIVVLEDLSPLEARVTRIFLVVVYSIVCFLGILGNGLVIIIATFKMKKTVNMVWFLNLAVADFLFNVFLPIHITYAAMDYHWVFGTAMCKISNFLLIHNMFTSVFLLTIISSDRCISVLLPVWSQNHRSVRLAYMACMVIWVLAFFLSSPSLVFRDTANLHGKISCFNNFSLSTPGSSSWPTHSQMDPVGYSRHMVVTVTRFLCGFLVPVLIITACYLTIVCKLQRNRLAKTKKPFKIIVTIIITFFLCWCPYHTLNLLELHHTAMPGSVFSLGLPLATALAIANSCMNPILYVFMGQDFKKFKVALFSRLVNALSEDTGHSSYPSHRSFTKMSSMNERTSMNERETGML
Procedure: COS-7 cells were transfected in 75 cm^2 cell culture flasks with 12 μg of the hCMKLR1_eYFP_GαΔ6qi4myr_pV2 plasmid overnight using Metafectene Pro. Transfected cells were seeded in 96 well plates (100 μL cell suspension in DMEM+10% FBS/well) and incubated overnight. The following day, the Ca^2+-mobilization was performed as described previously. […] All experiments were performed in triplicates, each experiment was repeated at least twice. Nonlinear regression was calculated using GraphPad Prism 5.

[2] = Plasma stability assay of Tam-labeled peptides; conditions: for half-life: human; for stability in blood plasma: over a time period of 24 h
Procedure: Investigation of peptide stability in blood plasma was carried out as described previously. […] Samples taken at the respective time points were added to a solution of 0.1% SDS in ACN/EtOH (1:1). After incubation at −20° C. for 20 min, the supernatant was transferred to a new tube and incubated again at −20° C. for at least 3 h. The solution was filtered by centrifugation using Costar Spin-X tubes (0.22 μm) and the filtrate was analyzed by RP-HPLC on a VariTide RPC. […] Peaks were integrated and the peak containing the intact peptide was normalized to the sample taken at t=0 min (100%).

CMKLR1 [3] = molecular target: T1, CMKLR1; assay: BRET-based arrestin 3 recruitment assay; conditions: for arrestin 3 recruitment to the CMKLR1 (in words): BRET, compared with chemerin-9; for Emax: read-out: Emax [%] ± SEM
Procedure: HEK293 cells were transiently transfected using 75 cm^2 cell culture flasks with cell monolayers (confluency of ˜80%). Plasmid DNA of the C-terminally eYFP tagged human CMKLR1 and the chimeric G protein GαΔ6qi4myr in a pVitro2 vector (7.8 μg) and Renilla-luciferase 8-tagged Arrestin 3 in pcDNA3 (0.2 μg) and 24 μl MetafectenePro were separately added to 900 μl DMEM/Ham's F12 and incubated for 10 min before unification and incubation at RT for 20 min. […] The plasmid solution was added and cells were incubated overnight before seeding. Cell seeding was carried out in white 96-well polystyrene cell culture microplates, coated with poly-D lysine. […] Afterwards, the cells were incubated overnight at 37° C. The assay was performed under unsterile conditions. […] Afterwards, the cells were stimulated with the peptides in different concentrations (10^−5 to 10^−12 M) dissolved in BRET buffer. 50 μl of the peptide dilution were used for cell stimulation. Buffer without peptide was used as a negative control. […] The values of the negative control were subtracted, non-linear regression was calculated using GraphPad Prism. […] All measurements were performed in four technical replicates, all experiments were repeated at least twice.
The bioluminescence resonance energy transfer (BRET) assay was used to determine the potency of cyclic chemerin variants to recruit arrestin 3 to the CMKLR1 receptor after stimulation. HEK293 cells were transiently transfected with CMKLR1 receptor fused with eYFP fluorophore and Arrestin 3 tagged with Rluc8 luciferase. The transfected cells were seeded, incubated with the luciferase substrate coelenterazine-h and stimulated with different peptide concentrations, resulting in measurable BRET signals.

CMKLR1 [4] = molecular target: T1, CMKLR1; assay: Fluorescence microscopy of CMKLR1 internalization and arrestin 3 recruitment; type: cell-based; design: expressed in transfected cells; host or cells: HEK293; conditions: HEK293 cells, 1 μM peptide
Procedure: Ibidi 15μ-slides were coated with poly D-lysine before cell seeding. Cells were washed with DPBS prior to detachment with 1 ml trypsin/EDTA. […] The cell suspension was diluted to 140,000 cells/200 μl, which were seeded. Incubation was carried out overnight at 37° C. Afterwards, cells were transiently transfected. Plasmid DNA of hCMKLR1_eYFP_GαΔ6qi4myr_pV2 (0.9 μg) and mCherry_Arr3_pcDNA3 (0.1 μg) and 8 μl Lipofectamine were separately added to 100 μl DMEM/Ham's F12 and incubated for 10 min before unification and incubation at RT for 20 min. Incubation was carried out overnight at 37° C. […] The medium was replaced by 200 μl of OptiMEM and the to status was documented. The OptiMEM was then replaced by 200 μl of 1 μM peptide in OptiMEM. Fluorophore excitation was analyzed using different filters, depending on the emission wavelength of the fluorophore and the time of exposure was adjusted to each fluorophore individually. All images were processed identically with the AxioVision software (Carl Zeiss AG, Oberkochen, Germany).
To verify the arrestin-recruitment and analyze the internalization of the CMKLR1 receptor itself, HEK293 cells were used and transiently transfected with fluorescent labeled variants of the two molecules.
FIG. 2: Internalization of CMKLR1 and arrestin 3 recruitment. HEK293 cells expressing the hCMKLR1 (green) and arrestin 3 (Arr3; red) due to transient transfection were used for the internalization studies.

[5] = EC50, HEK293 cells, CMKLR1-eYFP and Rluc8-arrestin 3, 15 min after agonist addition
[6] = COS-7 cells transfected with hCMKLR1_eYFP_GαΔ6qi4myr, normalized to chemerin-9

NC(=O)CC[C@@H]1NC(=O)[C@H](NC(=O)[C@@H]2CCCN2C(=O)[C@H](Cc2ccccc2)NC(=O)[C@@H](N)Cc2ccc(O)cc2)CSSC[C@@H](C(=O)N[C@@H](Cc2ccccc2)C(=O)N[C@@H](CO)C(=O)O)NC(=O)[C@H](Cc2ccccc2)NC1=O [$$ 6, [c4,C7]-chemerin-9, reference compound] (H-YFP[dC]QFCFS-OH; disulfide 4-7)
EC50 (CMKLR1 [1]): 62.5 nM

C[C@@H]1NC(=O)[C@H](Cc2ccccc2)NC(=O)[C@H](CCC(N)=O)NC(=O)[C@H](NC(=O)[C@@H]2CCCN2C(=O)[C@H](Cc2ccccc2)NC(=O)[C@H](Cc2ccc(O)cc2)NC(=O)CCOCCOCCOCCOCCNC(=O)c2ccc(C(=O)[O-])c(-c3c4ccc(=[N+](C)C)cc-4oc4cc(N(C)C)ccc34)c2)CCSSC[C@@H](C(=O)O)NC(=O)[C@H](Cc2c[nH]c3ccccc23)NC1=O [$$ 19, Tam-EG4-[x4,W8,C9]-chemerin-9] ({X1-PEG4}-YFP[d(hCys)]QFAWC-OH; disulfide 4-9)
half-life ([2]; human blood plasma): > 48 h

C[C@@H]1NC(=O)[C@H](Cc2ccccc2)NC(=O)[C@H](CCC(N)=O)NC(=O)[C@H](NC(=O)[C@@H]2CCCN2C(=O)[C@H](Cc2ccccc2)NC(=O)[C@@H](N)Cc2ccc(O)cc2)CCSSC[C@@H](C(=O)O)NC(=O)[C@H](Cc2c[nH]c3ccccc23)NC1=O [$$ 14, [x4,W8,C9]-chemerin-9] (H-YFP[d(hCys)]QFAWC-OH; disulfide 4-9)
EC50 (CMKLR1 [3]): 158 nM | arrestin 3 recruitment to the CMKLR1 (in words) (CMKLR1 [3]): accepted; also recorded: no impact | Emax (CMKLR1 [3]): 97 ± 10% | G protein signaling activity (in words) (CMKLR1 [1]; Ca2+ mobilization assay): increased the activity even more | EC50 (CMKLR1 [1]; EC50, COS-7 cells transfected with hCMKLR1_eYFP_GαΔ6qi4myr, normalized to chemerin-9): 3 nM | EC50 (CMKLR1 [1]; pEC50 ± SEM, COS-7 cells transfected with hCMKLR1_eYFP_GαΔ6qi4myr, normalized to chemerin-9): 3.17 nM

C[C@@H]1NC(=O)[C@H](Cc2ccccc2)NC(=O)[C@H](CCC(N)=O)NC(=O)[C@H](NC(=O)[C@@H]2CCCN2C(=O)[C@H](Cc2ccccc2)NC(=O)[C@H](Cc2ccc(O)cc2)NC(=O)CCOCCOCCOCCOCCN)CCSSC[C@@H](C(=O)O)NC(=O)[C@H](Cc2c[nH]c3ccccc23)NC1=O [$$ 18, EG4-[x4,W8,C9]-chemerin-9] (H-[PEG4]YFP[d(hCys)]QFAWC-OH; disulfide 5-10)
arrestin 3 recruitment to the CMKLR1 (in words) (CMKLR1 [3]): accepted | EC50 (CMKLR1 [3]; [5]): 418 nM | Emax (CMKLR1 [3]): 69 ± 8% | arrestin 3 recruitment (CMKLR1 [4]): good arrestin 3 recruitment | receptor internalization (CMKLR1 [4]; compared to chemerin-9): slightly lower receptor internalization | EC50 (CMKLR1 [1]): 193 nM

C[C@@H]1NC(=O)[C@H](Cc2ccccc2)NC(=O)[C@H](CCC(N)=O)NC(=O)[C@H](NC(=O)[C@@H]2CCCN2C(=O)[C@H](Cc2ccccc2)NC(=O)[C@@H](N)Cc2ccc(O)cc2)CSCSC[C@@H](C(=O)O)NC(=O)[C@H](Cc2ccccc2)NC1=O [$$ 7, [c4,C9-TA]-chemerin-9] (H-YFP[dC]QFAFC-OH; linker 4-9 via CH2)
pEC50 ± SEM (CMKLR1 [1]; [6]): 7.888 ± 0.130

C[C@@H]1NC(=O)[C@H](Cc2ccccc2)NC(=O)[C@H](CCC(N)=O)NC(=O)[C@H](NC(=O)[C@@H]2CCCN2C(=O)[C@H](Cc2ccccc2)NC(=O)[C@@H](N)Cc2ccc(O)cc2)CSCSCC[C@@H](C(=O)O)NC(=O)[C@H](Cc2ccccc2)NC1=O [$$ 9, [c4,X9-TA]-chemerin-9] (H-YFP[dC]QFAF[hCys]-OH; linker 4-9 via CH2)
stability in blood plasma [2]: completely stable | pEC50 ± SEM (CMKLR1 [1]; [6]): 7.429 ± 0.110

CC(=O)NCC(=O)N[C@@H](Cc1ccccc1)C(=O)N[C@@H](CC(C)C)C(=O)NCC(=O)N[C@@H](Cc1ccc(O)cc1)C(=O)N[C@@H](Cc1ccccc1)C(=O)N1CCC[C@H]1C(=O)N[C@@H]1CCSSC[C@@H](C(=O)O)NC(=O)[C@H](Cc2ccccc2)NC(=O)[C@H](C)NC(=O)[C@H](Cc2ccccc2)NC(=O)[C@H](CCC(N)=O)NC1=O [$$ 20, GFLG-[x4,C9]-chemerin-9] (Ac-GFLGYFP[d(hCys)]QFAFC-OH; disulfide 8-13)
EC50 (CMKLR1 [3]; [5]): 100 nM | Emax (CMKLR1 [3]): 89 ± 5% | EC50 (CMKLR1 [1]): 21.1 nM

C[C@@H]1NC(=O)[C@H](Cc2ccccc2)NC(=O)[C@H](CCC(N)=O)NC(=O)[C@H](NC(=O)[C@@H]2CCCN2C(=O)[C@H](Cc2ccccc2)NC(=O)[C@H](Cc2ccc(O)cc2)NC(=O)CCOCCOCCOCCOCCNC(=O)c2ccc(C(=O)[O-])c(-c3c4ccc(=[N+](C)C)cc-4oc4cc(N(C)C)ccc34)c2)CCSSC[C@@H](C(=O)O)NC(=O)[C@H](Cc2ccccc2)NC1=O [$$ 17, Tam-EG4-[x4,C9]-chemerin-9] ({X1-PEG4}-YFP[d(hCys)]QFAFC-OH; disulfide 4-9)
half-life ([2]; human blood plasma): > 48 h

CN(C)c1ccc2c(-c3cc(C(=O)NCCCC[C@H]4NC(=O)C(Cc5ccccc5)NC(=O)[C@@H](CCC(N)=O)NC(=O)[C@H](NC(=O)[C@@H]5CCCN5C(=O)[C@@H](Cc5ccccc5)NC(=O)[C@H](N)Cc5ccc(O)cc5)CSSCC(C(=O)O)NC(=O)[C@@H](Cc5ccccc5)NC4=O)ccc3C(=O)[O-])c3ccc(=[N+](C)C)cc-3oc2c1 (stereo partly shown) [$$ 12, [y1,c4,K7(Tam),C9]-chemerin-9] (H-[dY][dF]P[dC][dQ][ξF][dK](X1)[dF][ξC]-OH; disulfide 4-9)
half-life ([2]; human blood plasma): > 24 h | stability in blood plasma [2]: equally stable

C[C@@H]1NC(=O)[C@H](Cc2ccccc2)NC(=O)[C@H](CCC(N)=O)NC(=O)[C@H](NC(=O)[C@@H]2CCCN2C(=O)[C@H](Cc2ccccc2)NC(=O)[C@H](N)Cc2ccc(O)cc2)CSCSCC[C@@H](C(=O)O)NC(=O)[C@H](Cc2ccccc2)NC1=O [$$ 11, [y1,c4,X9-TA]-chemerin-9] (H-[dY]FP[dC]QFAF[hCys]-OH; linker 4-9 via CH2)
pEC50 ± SEM (CMKLR1 [1]; [6]): 7.553 ± 0.067

C[C@@H]1NC(=O)[C@H](Cc2ccccc2)NC(=O)[C@H](CCC(N)=O)NC(=O)[C@H](NC(=O)[C@@H]2CCCN2C(=O)[C@H](Cc2ccccc2)NC(=O)[C@H](Cc2ccc(O)cc2)NC(=O)CCOCCOCCOCCOCCN)CCSSC[C@@H](C(=O)O)NC(=O)[C@H](Cc2ccccc2)NC1=O [$$ 16, EG4-[x4,C9]-chemerin-9] (H-[PEG4]YFP[d(hCys)]QFAFC-OH; disulfide 5-10)
arrestin 3 recruitment to the CMKLR1 (in words) (CMKLR1 [3]): accepted; also recorded: no impact | Emax (CMKLR1 [3]): 102 ± 5%

C[C@@H]1NC(=O)[C@H](Cc2ccccc2)NC(=O)[C@H](CCC(N)=O)NC(=O)[C@H](NC(=O)[C@@H]2CCCN2C(=O)[C@H](Cc2ccccc2)NC(=O)[C@H](Cc2ccc(O)cc2)NC(=O)c2ccc(C(=O)O)c(-c3c4ccc(=[N+](C)C)cc-4oc4cc(N(C)C)ccc34)c2)CSSC[C@@H](C(=O)O)NC(=O)[C@H](Cc2ccccc2)NC1=O [$$ 5, Tam-[c4,C9]-chemerin-9] (X2-YFP[dC]QFAFC-OH; disulfide 4-9)
half-life ([2]; human blood plasma): > 24 h | stability in blood plasma [2]: completely stable

C[C@@H]1NC(=O)[C@H](Cc2ccccc2)NC(=O)[C@H](CCC(N)=O)NC(=O)[C@H](NC(=O)[C@@H]2CCCN2C(=O)[C@H](Cc2ccccc2)NC(=O)[C@H](Cc2ccc(O)cc2)NC(=O)c2ccc(C(=O)[O-])c(-c3c4ccc(=[N+](C)C)cc-4oc4cc(N(C)C)ccc34)c2)CSCSC[C@@H](C(=O)O)NC(=O)[C@H](Cc2ccccc2)NC1=O [$$ 8, Tam-[c4,C9-TA]-chemerin-9] (X1-YFP[dC]QFAFC-OH; linker 4-9 via CH2)
half-life ([2]; plasma): > 24 h | stability in blood plasma [2]: completely stable

C[C@@H]1NC(=O)[C@H](Cc2ccccc2)NC(=O)[C@H](CCC(N)=O)NC(=O)[C@H](NC(=O)[C@@H]2CCCN2C(=O)[C@H](Cc2ccccc2)NC(=O)[C@@H](N)Cc2ccc(O)cc2)CCSSC[C@@H](C(=O)O)NC(=O)[C@H](Cc2ccccc2)NC1=O [$$ 13, [x4,C9]-chemerin-9] (H-YFP[d(hCys)]QFAFC-OH; disulfide 4-9)
arrestin 3 recruitment to the CMKLR1 (in words) (CMKLR1 [3]): only slightly shifted EC50 and Emax values; also recorded: slight loss of activity | Emax (CMKLR1 [3]): 86.8 ± 4%

C[C@@H]1NC(=O)[C@H](Cc2ccccc2)NC(=O)[C@H](CCC(N)=O)NC(=O)[C@H](NC(=O)[C@@H]2CCCN2C(=O)[C@H](Cc2ccccc2)NC(=O)[C@@H](N)Cc2ccc(O)cc2)CSSC[C@@H](C(=O)O)NC(=O)[C@H](Cc2ccccc2)NC1=O [$$ 4, [c4,C9]-chemerin-9, reference compound] (H-YFP[dC]QFAFC-OH; disulfide 4-9)
EC50 (CMKLR1 [1]; [6]): 64 nM | pEC50 ± SEM (CMKLR1 [1]; [6]): 7.192 ± 0.147
